Source: US12228568B2, “Redox-labile fluorescent probes and their surface immobilization methods for the detection of metabolites” (The Regents of the University of California, priority 2018, dated 2025)
Where a SMILES comes first, the peptide text is derived from it. The star is where a group is joined. Biotin = O=C1N[C@H]2[C@H](CS[C@H]2CCCCC(=O)*)N1; X1 = O=C(c1c(O)ccc2c1oc1cc(=O)ccc-1[n+]2[O-])*

Legend:
[1] = Interference of intracellular reducing agents with APRz detection; format: biochemical; conditions: Glutamine 6 mM; Glucose 6 mM; Ascorbate 100 nM; Glutathione 6 mM; APRz 8 µM in PBS
Excerpt: FIG. 15. Comparison of the reaction kinetics using different reducing agents.
A potential concern of employing the enzymatic mechanism for lactate quantitation was the specificity of the method. The complex intracellular contents always pose strong challenges on such redox-based methods. […] In order to evaluate the combined interference from all intracellular components, we further performed validation using GBM39 cell lysates.

GBM39 cells = test: SCBC single cell metabolic/proteomic measurements; format: cell-based, human; conditions: for glucose uptake / lactate production: erlotinib 1 μM 24 h or oligomycin A 0.1 μM 3 h vs DMSO
Excerpt: We then sought to adapt the lactate assay for single cell level quantitation. The surface-based lactate assay was incorporated onto the SCBC platform, which consisted of a two-layer elastomer microfluidics device coupled to a DNA barcoded glass slide.^[5, 7] The device contained 384 programmable microchambers where cells were loaded and lysed for analysis. Each microchamber was equipped with a set of DNA barcode stripes, which served as a scaffold for multiplex measurements (FIG. 18). We quantified glucose uptake, lactate production and a panel of signaling proteins from GBM39 single cells. GBM39 is a human glioblastoma cell line that harbors a mutated form of the epidermal growth factor receptor (EGFR), which drives cell proliferation. Cells were treated with 1 μM of erlotinib (EGFR inhibitor), 0.1 μM of oligomycin A (ATPase inhibitor) or DMSO (control) before analysis.
GBM 39 primary neurospheres were provided by Prof. C. David James (UCSF, San Francisco, U.S.A.) and HK301 cells were provided by Prof. Harley Kornblum (UCLA, Los Angeles, U.S.A). Cells were cultured in Dulbecco's Modified Eagle Media Nutrient Mix F-12 (DMEM/F12, Thermo) supplemented with B27 (Invitrogen), Glutamax (Thermo), heparin (1 μg/mL, Sigma), Epidermal Growth Factor (EGF, […], Sigma), Fibroblast Growth Factor (FGF, 20 ng/mL, Sigma) and 100 U/mL of penicillin and streptomycin (Thermo) in a humidified 5% CO2 (v/v) incubator at 37° C. […] For the erlotinib group, the GBM 39 cells were treated for 24 h while for the oligomycin group, the cells were treated for 3 h. Afterwards, the treated cells were processed for tests.
For SCBC measurements, the as-prepared single cells were resuspended in warm media with 10 μg/mL of Gluc-Bio at 1 M cells/mL. After incubated at 37° C. for 30 min and washed with cold PBS for 3 times, the collected cell pellet was resuspended in serum-free, biotin-free media which contained 25 U/mL lactate dehydrogenase (LDH) and 25 U/mL diaphorase. The concentration of the as-prepared single cell suspension was 1 M cells/mL.
The single cell barcode chips (SCBC) were fabricated according to well-established procedures. DNA-encoded antibody library (DEAL) was grafted onto the surface through DNA hybridization to afford capture antibody arrays. The DNA-APRz conjugate can also be incorporated onto the surface barcode through the same procedure. […] 2) the lysis buffer was prepared to contain 2 mM of NAD^+.
The SCBC readouts from the microchambers with single cells were collected to form a data table. Each row of the table corresponds to a measurement of a panel of functional proteins from a single cell and each column contains digitized fluorescence intensities that provide readout of the levels of each of the assayed proteins. […]. Protein-protein Spearman's rank correlation coefficients were calculated. Bonferroni corrected p-value was used to define the statistical significance level for the entire panel and only those significant correlations were shown in the networks. Analyte-analyte correlation networks were generated by running the calculation through all the analyte pairs in panel.

[2] = Surface-based lactate assay on immobilized resazurin probes (coupled LDH/diaphorase reactions); format: biochemical; conditions: surface-immobilized probe; sodium lactate, NAD+, LDH and diaphorase
Excerpt: We then evaluated the BRz and APRz probes for their performance in lactate detection experiments. BRz was immobilized onto the surface through ssDNA-streptavidin conjugates. Similarly, dibenzocyclooctyne-modified ssDNA enabled surface grafting of APRz molecules (FIG. 3, panel a).^[10] The resazurin-modified surfaces were exposed to a solution containing a mixture of sodium lactate, nicotinamide adenine dinucleotide (NAD+), lactate dehydrogenase (LDH) and diaphorase. In this case, the enzyme reaction cascade shown in FIG. 1, panel a translates the lactate quantity to fluorescence readouts.
A 16-well PDMS slab was placed onto a microscope glass slide, on which single strand DNA oligomers are patterned in 20 μm stripes. The volume of each well is 50 μL and it is equipped with at least eight sets of DNA barcode strips. […]
Subsequently, each well was washed with PBST for three times. At this stage, the APRz probe was immobilized to the surface and ready to use.
To obtain the standard curve for lactate quantification, 20 μL of NAD+ solution (1 mM in PBST), 1 μL of LDH solution (1 kU in ammonium sulfate buffer), 1 μL of diaphorase solution (1 kU/mL in PBS) and 20 μL of lactate solution (various concentrations in PBST) was added to each well and the device was incubated at room temperature for one hour. […] The surface fluorescence intensity was then measured by a microscanner. […]

[3] = Stability of modified resazurin probes; format: physicochemical; conditions: solution phase, 8 μM in PBS
Description: FIG. 7. Synthesis of the extended CRz bearing an aliphatic carboxyl group (CPRz). This carboxyl group could be readily converted to an NHS ester using standard coupling procedures. However, the ss-DNA-CPRz was not stable, and went through spontaneous self-reduction even at −20° C.
FIG. 10. Stability of Biotin-modified CRz (BRz) in solution phase. 8 μM in PBS. At 6 hrs, all the BPRz was reduced through adding 10 units of Diaphorase and 1 mM of NADH in PBS.
FIG. 11. Stability of the APRz probe (8 μM in PBS). The “reduced” signal was obtained through adding 10 units of Diaphorase and 1 mM of NADH to the APRz solution followed by a 1 hour incubation.
In order to be adapted to the SCBC platform, the probe immobilization process should be compatible with the single-stand DNA hybridization process.^[5] However, the N-oxide group on CRz confers strong redox lability. Consequently, the attempt of conjugating the amine-modified CRz to a single strand DNA (ssDNA) was unsuccessful.

## N[C@@H](CCC(=O)N[C@@H](CS)C(=O)NCC(=O)O)C(=O)O [glutathione]
[1]
  fluorescence increase within the assay duration: insignificant fluorescence increase
  reaction kinetics of APRz reduction by reducing agent: very slow reaction kinetics

## CC[C@H]1/C=C/C=C/C[C@@H](C)[C@H](O)[C@@](C)(O)C(=O)[C@@H](C)[C@H](O)[C@@H](C)C(=O)[C@@H](C)[C@H](O)[C@@H](C)/C=C/C(=O)O[C@@H]2[C@H](C)[C@H](CC1)O[C@]1(CC[C@H](C)[C@H](C[C@@H](C)O)O1)[C@H]2C [oligomycin, oligomycin A]
GBM39 cells
  glucose uptake: slightly higher
  lactate production: significantly increased
GBM39 cells; oligomycin A 0.1 μM 3 h vs DMSO
  phosphoproteins downstream of the EGFR signaling pathway: suppress

## O=C1O[C@H]([C@@H](O)CO)C(O)=C1O [ascorbic acid]
[1]
  fluorescence increase within the assay duration: insignificant fluorescence increase
  reaction kinetics of APRz reduction by reducing agent: very slow reaction kinetics

## C#Cc1cccc(Nc2ncnc3cc(OCCOC)c(OCCOC)cc23)c1 [erlotinib]
GBM39 cells
  glucose uptake: dramatically decreased
  lactate production: dramatically decreased
GBM39 cells; erlotinib 1 μM 24 h vs DMSO
  phosphorylation levels on EGFR as well as downstream signaling proteins: significant down regulation

## NCCCC[C@H](NC(=O)CNC(=O)CCCC[C@@H]1SC[C@@H]2NC(=O)N[C@@H]21)C(=O)NCC(=O)N[C@@H](CCCCN)C(=O)NCC(=O)N[C@@H](CCCCN)C(=O)NCC(=O)N[C@@H](CCCCNC(=O)c1c(O)ccc2c1oc1cc(=O)ccc-1[n+]2[O-])C(=O)NCC(N)=O [BRz] (Biotin-GKGKGKGK(X1)G-NH2)
[2]
  increase of fluorescence intensity after lactate conversion: unsatisfactory fluorescence increase
[3]
  stability of probe: superior stability
